Results from patent US20090104705A1, “Ascorbic acid conjugates” (priority 2005, published 2009).

Legend:
[1] = test system: human aortic endothelial cells (HAECs); experiment: MTT assay, cytotoxicity in human aortic endothelial cells; type: cell-based; settings: 25 to 100 μM, up to 66 hours, 20% bovine calf serum
Text: FIG. 13 illustrates the results of cytotoxicity studies in human aortic endothelial cells (HAECs) using the MTT assay (described below). […] The observed cytotoxic effect of HNE is relatively moderate, which is likely due to the presence of 20% bovine calf serum in the culture medium of HAECs, causing inactivation of HNE by adduction to serum proteins and other serum constituents. […] FIG. 13, panel C further illustrates the large difference in cytotoxicity between HNE and ascorbylated HNE in HAECs treated with both compounds at 75 or 100 μM for 42 hours. The results of these experiments strongly support the hypothesis that ascorbylation represents a detoxification pathway for HNE and other electrophilic LPO products.
With reference to […], Cells were grown to confluence in 96-well plates and exposed to 25, 50, 75 or 100 μM HNE or ascorbylated HNE for up to 66 hours (Panels A and B). Cell viability was assessed by spectrophotometric (590 nm) measurement of the reduction of MTT (3-[4,5-dimethylthiazol-2-yl]-2,5-diphenyltetrazolium bromide) by dehydrogenases in respiring mitochondria, and expressed as a percentage of the control (1.0% ethanol). […] The data are presented as mean of five observations (±SD). Asc-HNE=ascorbylated HNE; numbers in legends refer to μM concentrations.

[2] = test system: ICAM-1 expression in BAECs; experiment: ICAM-1 expression in BAECs by ELISA; type: cell-based; settings: 25 μM, 24 hours, 20% bovine calf serum, data not shown
Procedure: The effect of HNE and ascorbylated HNE on endothelial activation also was determined. To this end, BAECs were exposed to 25 μM HNE or ascorbylated HNE for 24 hours in the presence of 20% bovine calf serum, and subsequently ICAM-1 expression was measured by ELISA. […] In contrast, HNE was reported to inhibit LPS-induced NFκB activation in human monocytic cells (Herbst et al. 1999; Page et al. 1999) and constitutive ICAM-1 expression in HUVECs (Herbst et al. 1999). […] However, unlike the incubation conditions with 20% bovine calf serum, the experiments by Herbst and colleagues were conducted in a serum-free environment in order to avoid inactivation of HNE by serum proteins (see above).

[3] = test system: ICAM-1 expression in HUVECs; settings: serum-free environment; cited from earlier work
[4] = test system: ICAM-1 expression in HAECs; experiment: ICAM-1 expression in HAECs by ELISA; type: cell-based, human; settings: 35 μM, 24 hours, 5% bovine calf serum
Text: This example establishes that vitamin C has the ability to abolish HPODE-induced endothelial activation. HAECs were exposed to HPODE or HPODE pretreated with ascorbate. […] Thus, vitamin C pre-treatment of HPODE leads to inactivation of HPODE with respect to its effect on ICAM-1 expression, which supports the proposition that vitamin C-induced degradation of LOOHs and subsequent ascorbylation of the resultant LPO products represents a pathway for elimination and detoxification of LOOHs and their degradation products (Scheme 2). […] As mentioned earlier, there is extensive data in the literature showing that specific LPO products elicit endothelial activation.
With reference to FIG. 14 HPODE was prepared by soybean lipoxygenase treatment of a solution of linoleic acid in phosphate buffer, pH 8.2, with stirring and air bubbling. […] The solution was acidified, and the mixture of HPODE-derived products was recovered from the aqueous solution by extraction with ethyl acetate. The combined ethyl acetate layers were washed with water to remove traces of ascorbic acid. The residue on evaporation was dissolved in 1.0 ml of ethanol, and the solution termed ‘ascorbate-treated HPODE’. […] Activation of HAECs was measured by quantifying ICAM-1 using a commercially available ELISA kit (Zhang and Frei 2001).

[5] = Stability of ascorbyl-HNE conjugate in stored plasma; type: physicochemical, human
Procedure: A problem with current biomarkers of oxidative stress is the formation of ex vivo-artifacts arising from sample instability or sample handling. The presence of the ascorbyl-HNE adduct in plasma is not due to an ex vivo-artifact. Moreover, the stability of the ascorbyl-HNE adduct was confirmed to ensure that its concentration was not fluctuating as a function of time. Specifically, aliquots of a plasma sample were analyzed over a time period of one month.

Row | Compound | cell viability of HAECs (MTT assay) [1] | change of ICAM-1 expression compared to the vehicle control [2] | concentration at which the inhibitory effect on ICAM-1 expression was observed [3] [µM] | ICAM-1 expression compared to the vehicle control [4] | stability of the conjugate in plasma ([5]; 4° C.) | change in the ascorbyl-HNE conjugate concentration ([5]; plasma aliquots over one month at 4° C.) [%]
1 | CCCCCC(O)C=CC=O (centres unmarked) [HNE, 4-hydroxy-2-nonenal] | progressive decrease in cell viability | Neither HNE nor ascorbylated HNE caused a change of ICAM-1 expression | ≥ 5 |  |  | 
2 | hydroperoxy octadecadienoic acids [HPODE] |  |  |  | increase in ICAM-1 expression |  | 
3 | CCCCCC1OC(O)CC1C1(O)C(=O)OC2C(O)COC21O (stereo not drawn) [ascorbyl-HNE conjugate, 3,3α,6-trihydroxy-3-(5-hydroxy 2-pentyl-tetrahydro-furan-3-yl)-tetrahydro-furo[3,2-b]furan-2-one] | not cytotoxic at any of the concentrations tested | Neither HNE nor ascorbylated HNE caused a change of ICAM-1 expression |  |  | stable for at least a month | 5.2
